Eight molecules from patent US9999222B2, “Herbicidal combination comprising azines” (BASF SE, priority 2014, dated 2018) can be followed below.

Values joined by “and” are separate entries in the source; they are usually repeats but may differ in a detail not shown here. Identical values can stand only once. Like-named read-outs stand apart in the source and are kept apart here.

Common to all, as to experiment: Greenhouse test, pre-emergence treatment
One test has as its system SORHA. It counts as in vivo, Sorghum halepense. As to conditions: Sorghum halepense, pre-emergence, read-out: observed % activity; for inhibition at 250 g/ha: 250 g ai/ha; for inhibition at 8 g/ha: 8 g ai/ha; for inhibition at 16 g/ha: 16 g ai/ha. The text has this: (§1) The culture containers used were plastic flowerpots containing loamy sand with approximately 3.0% of humus as the substrate. The seeds of the test plants were sown separately for each species.
(§2) For the pre-emergence treatment, the active ingredients, which had been suspended or emulsified in water, were applied directly after sowing by means of finely distributing nozzles. The containers were irrigated gently to promote germination and growth and subsequently covered with transparent plastic hoods until the plants had rooted. This cover caused uniform germination of the test plants, unless this had been impaired by the active ingredients.
(§3) Depending on the species, the plants were kept at 10-25° C. or 20-35° C., respectively.
(§4) The test period extended over 2 to 4 weeks. During this time, the plants were tended, and their response to the individual treatments was evaluated.
(§5) Evaluation was carried out using a scale from 0 to 100. 100 means no emergence of the plants, or complete destruction of at least the aerial moieties, and 0 means no damage, or normal course of growth. A moderate herbicidal activity is given at values of at least 60, a good herbicidal activity is given at values of at least 70, and a very good herbicidal activity is given at values of at least 85.
(§6) The respective stated components a and b, and if appropriate, c were formulated as a 10% by weight strength emulsion concentrate and, with addition of the amount of solvent system, introduced into the spray liquor used for applying the active compound.
(§7) In the examples, the solvent used was water.
(§8) In the examples below, using the method of S. R. Colby (1967) “Calculating synergistic and antagonistic responses of herbicide combinations”, Weeds 15, p. 22ff., the value E, which is expected if the activity of the individual active compounds is only additive, was calculated. E=X+Y−(X·Y/100) where • X=percent activity using active compound a at an application rate A; • Y=percent activity using active compound b at an application rate B; • E=expected activity (in %) by a+b at application rates A+B.
(§9) If the value found experimentally is higher than the value E calculated according to Colby, a synergistic effect is present.

Test [1] has as its system ERICA. It counts as in vivo, Erigeron canadensis.
The test system of a further test is ELEIN. It counts as in vivo, Eleusine indica.
From the text: as §1, §2, §3, §4, §5, §6, §7, §8, §9

Test [2] deals with CENCY. The format is in vivo, Centaurea cyanus.
For a further test, the system named is APESV. It counts as in vivo, Apera spica-venti. As to conditions: for inhibition at 12.5 g/ha: use rate 12.5 g ai/ha; for inhibition at 25 g/ha: use rate 25 g ai/ha.
From the text: as §1, §2, §3, §4, §5, §6, §7, §8, §9

The subject of another test is MATIN. The format is in vivo.
In test [3] the test system is CENCY. It counts as in vivo. The settings on record: 480 h, read-out: observed % activity 20 DAT.
Test [4] deals with DIGSA. The format is in vivo. The settings on record: Digitaria sanguinalis, 480 h, read-out: observed % activity 20 DAT.
For another test, the system named is ABUTH. It counts as in vivo, Abutilon theophrasti. The settings on record: Abutilon theophrasti, 480 h. Put shortly: (§10)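 Seeds were sown in loamy sand with about 3.0% humus, and compounds in water were sprayed immediately after sowing, alone or as combinations formulated as 10% emulsion concentrates. Plants grew under hoods until rooted, at 10-25 °C or 20-35 °C by species, for 2 to 4 weeks. Damage was scored 0-100 (100 = no emergence or complete destruction), and Colby expected values were E=X+Y−(X·Y/100).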

The subject of test [5] is CENCY. The format is in vivo. As to conditions: 480 h, individual, read-out: observed % activity 20 DAT.
The next test relates to ANTAR. It counts as in vivo. The settings on record: Anthemis arvensis, 480 h, 20 DAT, read-out: observed % activity. In short, it runs like this:
as §10

For another test, the system named is SETVI. The format is in vivo, Setaria viridis.
From the text: as §1, §2, §3, §4, §5, §6, §7, §8, §9

Test [6] deals with ERICA. The format is in vivo. The settings on record: 480 h, 125 g ai/ha, read-out: observed % activity 20 DAT.
The subject of test [7] is DIGSA. It counts as in vivo, Digitaria sanguinalis. The settings on record: 8 g ai/ha.
The mark [8] stands for this setting: Apera spica-venti, 480 h, APESV, 20 DAT, read-out: observed % activity 20 DAT.
Setting [9] is: Apera spica-venti, 480 h, read-out: observed % activity 20 DAT.

As to `CC(C)N(C(=O)COc1nnc(C(F)(F)F)s1)c1ccc(F)cc1` [Flufenacet, flufenacet], the inhibition at 40 g/ha in the test on SORHA (480 h, 40 g ai/ha, 20 DAT) was determined as 95%.
Turning to `CCC(CC)Nc1c([N+](=O)[O-])cc(C)c(C)c1[N+](=O)[O-]` [Pendimethalin, pendimethalin], the “observed % activity 20 DAT” value in the test with ERICA [1] (500 g ai/ha) was 90%; with ERICA [1] (1000 g ai/ha), 90%; in the test on ELEIN (500 g ai/ha) it was 100%; in the test with CENCY [2] (500 g ai/ha), 25%; with CENCY [2] (1000 g ai/ha), 0%; with APESV (use rate 125 g ai/ha, 20 DAT), 60%. Besides, the “observed % activity 20 DAT” value in the test on APESV (use rate 250 g ai/ha, 20 DAT) amounted to 75%; in the test with APESV (use rate 500 g ai/ha, 20 DAT), 95%. Moreover, the inhibition at 250 g/ha turned out to be 75% in the test on SORHA (480 h, 20 DAT) and 75% in the test on APESV (Apera spica-venti, 480 h, use rate 250 g ai/ha, read-out: observed % activity 20 DAT). The inhibition at 500 g/ha with SORHA (480 h, 500 g ai/ha, 20 DAT) was determined as 85%; in the test on APESV (Apera spica-venti, 480 h, use rate 500 g ai/ha, read-out: observed % activity 20 DAT), 95%. Further, in the test with APESV (Apera spica-venti, 480 h, use rate 125 g ai/ha, read-out: observed % activity 20 DAT), the inhibition at 125 g/ha amounted to 85%.
Take `COCC(C)N(C(=O)CCl)c1c(C)csc1C` (stereo not shown) [Dimethenamid, dimethenamid]: the “observed % activity 20 DAT” value in the test on MATIN (use rate 62.5 g ai/ha) was 70%; in the test on MATIN (use rate 125 g ai/ha), 90%; with APESV (use rate 62.5 g ai/ha, 20 DAT) it was 95%.
In the case of `CC(C)N(C)S(=O)(=O)NC(=O)c1cc(-n2c(=O)cc(C(F)(F)F)n(C)c2=O)c(F)cc1Cl` [Saflufenacil, saflufenacil], the inhibition at 5 g/ha in the test with CENCY [3] (5 g ai/ha) was found to be 20%; with CENCY [5] (use rate 5 g ai/ha), 20%; in the test with ANTAR (5 g ai/ha), 98%. For the same molecule, the inhibition at 10 g/ha in the test with CENCY [3] (10 g ai/ha) amounted to 30%; in the test on ABUTH (10 g ai/ha, 20 DAT, read-out: observed % activity), 90%; with ABUTH (10 g ai/ha, read-out: observed % activity 20 DAT) it was 25%; with ABUTH (ABUTH, individual, use rate 10 g ai/ha, read-out: observed % activity 20 DAT), 25%; with CENCY [5] (use rate 10 g ai/ha), 30%. The inhibition at 18 g/ha in the test with DIGSA [4] (18 g ai/ha) is 0%; in the test on ELEIN (Eleusine indica, 480 h, 18 g ai/ha, read-out: observed % activity 20 DAT), 35%. Besides, the inhibition at 36 g/ha is 65% in the test with DIGSA [4] (36 g ai/ha) and 95% in the test with ELEIN (Eleusine indica, 480 h, 36 g ai/ha, read-out: observed % activity 20 DAT). Besides, the inhibition at 3.125 g/ha with APESV (Apera spica-venti, 480 h, APESV, use rate 3.125 g ai/ha, 20 DAT, read-out: observed % activity 20 DAT) is 0%.
For the molecule `CC(C)(F)c1nc(N)nc(Nc2c(F)c(F)cc(F)c2F)n1` [compound 2, 6-(1-Fluoro-1-methyl-ethyl)-N4-(2,3,5,6-tetrafluorophenyl)-1,3,5-triazine-2,4-diamine], the “observed % activity 20 DAT” value in the test with MATIN (use rate 1 g ai/ha) is 98%; in the test with APESV (use rate 2 g ai/ha, 20 DAT), 90% and 95%; in the test with APESV (use rate 4 g ai/ha, 20 DAT), 98%. The inhibition at 1 g/ha in the test on APESV (Apera spica-venti, 480 h, APESV, use rate 1 g ai/ha, 20 DAT, read-out: observed % activity 20 DAT) came out at 95%. Moreover, in the test with APESV (Apera spica-venti, 480 h, APESV, use rate 2 g ai/ha, 20 DAT, read-out: observed % activity 20 DAT), the inhibition at 2 g/ha is 95%.
Turning to `CSc1nnc(C(C)(C)C)c(=O)n1N` [metribuzin], the inhibition at 125 g/ha came out at 75% in the test on CENCY [3] (125 g ai/ha); 65% in the test on SETVI (Setaria viridis, 480 h, 125 g ai/ha, read-out: observed % activity 20 DAT); 98% in the test with ELEIN (Eleusine indica, 480 h, 125 g ai/ha, read-out: observed % activity 20 DAT); 98% with ERICA [6]. Besides, the inhibition at 250 g/ha in the test on CENCY [3] (250 g ai/ha) was 85%; with SETVI (Setaria viridis, 480 h, 250 g ai/ha, read-out: observed % activity 20 DAT), 95%; in the test on SORHA (480 h, 20 DAT), 45%; in the test with ELEIN (Eleusine indica, 480 h, 250 g ai/ha, read-out: observed % activity 20 DAT), 98%.
In the case of `Cn1nc(C(F)(F)F)c(CS(=O)(=O)C2=NOC(C)(C)C2)c1OC(F)F` [Pyroxasulfone, pyroxasulfone], the “observed % activity 20 DAT” value in the test with SETVI (8 g ai/ha) was found to be 85%; in the test with DIGSA [7], 95%; with CENCY [2] (24 g ai/ha), 15%. The inhibition at 6 g/ha in the test on SORHA (480 h, 6 g ai/ha, 20 DAT) was found to be 75%. Further, the inhibition at 24 g/ha in the test on SORHA (480 h, 24 g ai/ha, 20 DAT) was found to be 98%. The pest or weed control at 24 g/ha with ABUTH (24 g ai/ha, read-out: observed % activity 20 DAT) worked out at 40%. In addition, the inhibition at 12.5 g/ha came out at 40% with APESV (setting [8]) and 50% in the test with APESV (setting [9]). Besides, the figures for the inhibition at 25 g/ha in the test on APESV (setting [8]) and in the test with APESV (setting [9]) were 50% and 60%, respectively.
In the case of `CC1(c2nc(N)nc(Nc3c(F)c(F)cc(F)c3F)n2)CCC1` [compound 8, 6-(1-methylcyclobutyl)-N4-(2,3,5,6-tetrafluorophenyl)-1,3,5-triazine-2,4-diamine], the inhibition at 8 g/ha with SORHA (192 h, 8 DAT) turned out to be 90%; in the test with SORHA (480 h, 20 DAT), 90%; with ABUTH (8 g ai/ha, 20 DAT, read-out: observed % activity) it was 80%; in the test on ANTAR (8 g ai/ha) it was 80%. Also, the inhibition at 16 g/ha with SORHA (192 h, 8 DAT) is 90%; in the test on SORHA (480 h, 20 DAT), 90%; with ABUTH (16 g ai/ha, 20 DAT, read-out: observed % activity), 70%; in the test with ANTAR (16 g ai/ha), 85%.
